From patent US10640492B2, “Tubulin inhibitor” (SHENZHEN NEPTUNUS PHARMACEUTICAL RESEARCH INSTITUTE CO., …, priority 2016, dated 2020)
Values belong to the molecule of their own block, whether it stands above or below them.

Key:
[1] = tested on: HT-1080 human fibrosarcoma cell strain; assay: CCK-8 cytotoxicity IC50, HT-1080; conditions: HT-1080, 72 h, read-out: cytotoxicity IC50
Description: (§1) To test the cytotoxic IC50 values of 14 candidate compounds against 5 cell strains (MDA-MB-231, HT-1080, AGS, A-673 & HUVEC) using a CCK-8 test kit.
(§2) a) The compound was serially diluted with DMSO starting from 0.5 μM, using twice echelon dilution.
(§3) The logarithmic growth phase cells were collected and counted. The cells were re-suspended in complete medium, whose concentration was adjusted according to the test results of the cell density optimization, and then seeded into 96-well plates with 100 μl of the cell suspension to each well. The cells were incubated in a 37° C., 100% relative humidity, 5% CO2 incubator for 24 hours.
(§4) b) The test compound was diluted with the medium to the corresponding action concentrations set up, and added into the cells in the plates at 25 μl/well. The test compound was prepared in 9 final action concentrations, which were obtained by sequentially diluted from 500 nM using twice echelon dilution.
(§5) c) The cells were incubated in a 37° C., 100% relative humidity, 5% CO2 incubator for 72 hours.
(§6) d) The medium was removed from the cells, and a complete medium containing 10% CCK-8 was added and incubated in a 37° C. incubator for 1-4 hours.
(§7) e) After gentle shaking, the absorbance at 450 nm of the sample was measured on a SpectraMax M5 Microplate Reader, and the inhibition ratio was calculated using the absorbance at 650 nm as reference.
(§8) The inhibition ratio of the drug on tumor cell growth was calculated as follows: tumor cell growth inhibition %=[(Ac−As)/(Ac−Ab)]×100%
(§9) The IC50 curve was fitted and the IC50 value was calculated using the software Graphpad Prism 5 and using the calculation formula log(inhibitor) vs. normalized response-variable slope or log(inhibitor) vs. response-variable slope.

[2] = tested on: tubulin in HuVEC cells; assay: Action on microtubule function, α-tubulin staining in HuVEC; format: cell-based, human; conditions: 2 μM, 30 minutes, vs DMSO control
Text: Human umbilical vein endothelial cells (HuVEC from Cambrex) were used in this study.

[3] = tested on: A-673 human rhabdomyosarcoma cell strain; assay: CCK-8 cytotoxicity IC50, A-673; conditions: A673, 72 h, read-out: cytotoxicity IC50
Description: as §1, §2, §3, §4, §5, §6, §7, §8, §9

[4] = CCK-8 cytotoxicity IC50, HUVEC; conditions: human, HUVEC umbilical vein endothelial cells
Description: HUVEC human umbilical vein endothelial cell strain (purchased from ScienCell Research Laboratories, Cat #8000, Lot #11233)
as §2, §3, §4, §5, §6, §7, §8, §9

[5] = tested on: drug-resistant MES-SA cells (p-glycoprotein induced); assay: Inhibitory effect on tumor proliferation, drug-resistant MES-SA transplanted tumor; format: in vivo; conditions: drug-resistant MES-SA nude mice, dose that does not reduce body weight, vs blank vehicle (FIG. 1)
Description: MES-SA cells (derived from ATCC) were cultured in low concentration of adriamycin for a long time to maintain sufficient cell viability and induced the expression of p-glycoprotein. After culturing for 10 months, the results of induced expression were detected by WB. After successful induction, the cells were cultured for one week in adriamycin-free medium. The tumor cells with adjusted concentration were inoculated into the armpit of nude mice. The transplanted tumors were treated with different drugs when they grew to a certain volume. Different doses of different drugs were administrated to blank mice to explore the drug dose not affecting the body weight of the animals, namely the dose to be administrated to treat the animals with transplanted tumors.

[6] = tested on: AGS human gastric adenocarcinoma cell strain; assay: CCK-8 cytotoxicity IC50, AGS; conditions: 72 h, read-out: cytotoxicity IC50
Description: AGS human gastric adenocarcinoma cell strain (purchased from Shanghai Cell Resource Center, Chinese Academy of Sciences)
as §2, §3, §4, §5, §6, §7, §8, §9

[7] = tested on: MDA-MB-231 human breast cancer cell strain; assay: CCK-8 cytotoxicity IC50, MDA-MB-231; conditions: MDA-MB-231, 72 h, read-out: cytotoxicity IC50
Description: as §1
MDA-MB-231 human breast cancer cell strain (purchased from Shanghai Cell Resource Center, Chinese Academy of Sciences)
as §2, §3, §4, §5, §6, §7, §8, §9

[8] = tested on: blood flow distribution in tissues and tumor tissue; assay: Blood flow distribution of tissues and tumor; format: in vivo, nude mice; conditions: two hours after administration, same pharmacodynamic dose, vs blank vehicle
Text: In this example, the effects of drugs on blood flow distribution of different tissues and organs at the same pharmacodynamic dose were simultaneously tested.

[9] = tested on: neutrophil count; assay: Effect on the neutrophil count at equivalent pharmacodynamic dose; conditions: rats, continuous administration for two weeks (FIG. 3)
Description: Multiple doses of different drugs were administrated to the nude mice respectively and the potency of the drugs in inhibiting the transplanted tumor in the nude mice was investigated. Base on the investigation, the equivalent dose of each drug was identified and converted to rat dose before administrated to the rats. That is, by administrating the rats with relatively equivalent pharmacodynamic dose, the effect of the drugs on the neutrophil count was examined. After continuously administration for two weeks, blood samples were collected and neutrophil counts were measured (FIG. 3).

[10] = Stability investigation (10-day accelerated stress testing)
Description: The tested conditions included 40° C., 60° C., humidity 75%, humidity 92.5%, and light. And under each condition, moisture, purity, maximum single impurity and total impurity of the compound tested were compared to that of day 0.

[11] = tested on: tumor cells inoculated in nude mice
Description: The nude mice inoculated with tumor cells were administrated with blank vehicle, docetaxel, compound 17 as well as the combination drug of docetaxel and compound 17. The tumor volume was measured at different time period after the administration and the change of tumor volume was evaluated. At the same time, the change of body weight of the nude mice was examined to evaluate the antitumor effect and the toxicity degree of the drug. In addition, based on the above administration and grouping methods, the blood neutrophil count level for normal SD rats was measured before administration and after the final administration to evaluate the influence of the drug on neutrophil counts.

[12] = tested on: blood neutrophil count; assay: Neutrophil count after compound 17 in combination with docetaxel; format: in vivo; conditions: normal SD rats, after final administration (FIG. 2C)
[13] = Day 10, sample 1 (no stress condition given)

neutrophil count [9]: had no obvious effect on neutrophils
Structure (SMILES): CC(C)(C)c1nc[nH]c1/C=c1\[nH]c(=O)/c(=C/C=C/c2cccc(F)c2)[nH]c1=O [Compound 7]
IC50 [1]: 43.6 nM | cell membrane blebbing [2]: induced | microtubule depolymerization [2]: induced | IC50 [3]: 35.4 nM | IC50 at 72 h [4]: 94.9 nM | anti-tumor proliferation effect (tumor weight) [5]: can effectively exert anti-tumor proliferation effects | IC50 [6]: 43 nM | IC50 [7]: 39.5 nM | distribution of blood flow in tissues except tumor tissues [8]: did not significantly affect the distribution of blood flow in tissues except tumor tissues | intratumoral blood flow distribution [8]: can significantly reduce the intratumoral blood flow distribution

Structure (SMILES): CC(C)(C)c1[nH]cnc1/C=c1\[nH]c(=O)/c(=C/C=C/c2ccc(OC(F)(F)F)cc2)[nH]c1=O [Compound 10]
IC50 [1]: 224 nM | cell membrane blebbing [2]: induced | microtubule depolymerization [2]: induced | IC50 [3]: 165 nM | IC50 at 72 h [4]: 363 nM | anti-tumor proliferation effect (tumor weight) [5]: can effectively exert anti-tumor proliferation effects | IC50 [6]: 94.9 nM | IC50 [7]: 105 nM | distribution of blood flow in tissues except tumor tissues [8]: did not significantly affect the distribution of blood flow in tissues except tumor tissues | intratumoral blood flow distribution [8]: can significantly reduce the intratumoral blood flow distribution | neutrophil count [9]: had no obvious effect on neutrophils

Structure (SMILES): COc1ccc(/C=C/C=c2\[nH]c(=O)/c(=C/c3nc[nH]c3C(C)(C)C)[nH]c2=O)cc1 [Compound 12]
IC50 [1]: 136 nM | cell membrane blebbing [2]: induced | microtubule depolymerization [2]: induced | IC50 [3]: 37.3 nM | IC50 at 72 h [4]: 43.1 nM | anti-tumor proliferation effect (tumor weight) [5]: can effectively exert anti-tumor proliferation effects | IC50 [6]: 35.3 nM | IC50 [7]: 45.5 nM | distribution of blood flow in tissues except tumor tissues [8]: did not significantly affect the distribution of blood flow in tissues except tumor tissues | intratumoral blood flow distribution [8]: can significantly reduce the intratumoral blood flow distribution | neutrophil count [9]: had no obvious effect on neutrophils

Structure (SMILES): CC(C)(C)c1[nH]cnc1/C=c1\[nH]c(=O)/c(=C/C=C/c2cccc(C#N)c2)[nH]c1=O [Compound 15]
IC50 [1]: 78.8 nM | cell membrane blebbing [2]: induced | microtubule depolymerization [2]: induced | IC50 [3]: 94.9 nM | IC50 at 72 h [4]: 78.6 nM | anti-tumor proliferation effect (tumor weight) [5]: can effectively exert anti-tumor proliferation effects | IC50 [6]: 63.5 nM | IC50 [7]: 123 nM | distribution of blood flow in tissues except tumor tissues [8]: did not significantly affect the distribution of blood flow in tissues except tumor tissues | intratumoral blood flow distribution [8]: can significantly reduce the intratumoral blood flow distribution | neutrophil count [9]: had no obvious effect on neutrophils

Structure (SMILES): CC(C)(C)c1[nH]cnc1/C=c1\[nH]c(=O)/c(=C/C=C/c2cc(F)ccc2Cl)[nH]c1=O [Compound 17]
IC50 [1]: 14.6 nM | cell membrane blebbing [2]: induced | microtubule depolymerization [2]: induced | IC50 [3]: 7.25 nM | IC50 at 72 h [4]: 35 nM | anti-tumor proliferation effect (tumor weight) [5]: can effectively exert anti-tumor proliferation effects | IC50 [6]: 10.8 nM | IC50 [7]: 20.4 nM | stability, overall finding ([10]; 10-day accelerated test: 40° C., 60° C., humidity 75%, humidity 92.5%, light): stable | Content ([10]; Day 0): 99.8% | Maximum single impurity ([10]; Day 0): 0.03 (RRT: 0.31) % | Moisture ([10]; Day 0): 0.1% | Total impurity ([10]; Day 0): 0.06% | Content ([10]; Day 5, 40° C.): 100.9% | Maximum single impurity ([10]; Day 5, 40° C.): 0.02 (RRT: 0.31) % | Moisture ([10]; Day 5, 40° C.): 0.1% | Total impurity ([10]; Day 5, 40° C.): 0.05% | Content ([10]; Day 5, 60° C.): 99.0% | Maximum single impurity ([10]; Day 5, 60° C.): 0.03 (RRT: 0.31) % | Moisture ([10]; Day 5, 60° C.): 0.2% | Total impurity ([10]; Day 5, 60° C.): 0.06% | Content ([10]; Day 5, humidity 75%): 99.5% | Maximum single impurity ([10]; Day 5, humidity 75%): 0.02 (RRT: 0.32) % | Moisture ([10]; Day 5, humidity 75%): 0.2% | Total impurity ([10]; Day 5, humidity 75%): 0.07% | Content ([10]; Day 5, humidity 92.5%): 99.5% | Maximum single impurity ([10]; Day 5, humidity 92.5%): 0.02 (RRT: 0.31) % | Moisture ([10]; Day 5, humidity 92.5%): 0.3% | Total impurity ([10]; Day 5, humidity 92.5%): 0.07% | Content ([10]; Day 5, light): 100.3% | Maximum single impurity ([10]; Day 5, light): 0.04 (RRT: 0.31) % | Moisture ([10]; Day 5, light): 0.1% | Total impurity ([10]; Day 5, light): 0.07% | Content ([10]; Day 10, 40° C.): 100.5% | Maximum single impurity ([10]; Day 10, 40° C.): 0.04 (RRT: 0.31) % | Moisture ([10]; Day 10, 40° C.): 0.1% | Total impurity ([10]; Day 10, 40° C.): 0.07% | Content ([10]; Day 10, 60° C.): 99.7% | Maximum single impurity ([10]; Day 10, 60° C.): 0.03 (RRT: 0.31) % | Moisture ([10]; Day 10, 60° C.): 0.2% | Total impurity ([10]; Day 10, 60° C.): 0.08% | Content ([10]; Day 10, humidity 75%): 99.0% | Maximum single impurity ([10]; Day 10, humidity 75%): 0.04 (RRT: 0.31) % | Moisture ([10]; Day 10, humidity 75%): 0.2% | Total impurity ([10]; Day 10, humidity 75%): 0.11% | Content ([10]; Day 10, humidity 92.5%): 99.4% | Maximum single impurity ([10]; Day 10, humidity 92.5%): 0.03 (RRT: 0.31) % | Moisture ([10]; Day 10, humidity 92.5%): 0.3% | Total impurity ([10]; Day 10, humidity 92.5%): 0.08% | Content ([10]; Day 10, light): 99.6% | Maximum single impurity ([10]; Day 10, light): 0.04 (RRT: 0.31) % | Moisture ([10]; Day 10, light): 0.1% | Total impurity ([10]; Day 10, light): 0.09% | Content [10, 13]: 100.4% | Maximum single impurity [10, 13]: 0.03 (RRT: 0.31) % | Moisture [10, 13]: 0.1% | Total impurity [10, 13]: 0.08% | inhibition of tumor proliferation (tumor volume) ([11]; nude mice inoculated with tumor cells (FIG. 2A)): can effectively inhibit the proliferation of tumor in vivo | distribution of blood flow in tissues except tumor tissues [8]: did not significantly affect the distribution of blood flow in tissues except tumor tissues | intratumoral blood flow distribution [8]: can significantly reduce the intratumoral blood flow distribution | neutrophil count [9]: had no obvious effect on neutrophils

Structure (SMILES): CC(=O)O[C@H]1C(=O)[C@@]2(C)[C@H]([C@H](OC(=O)c3ccccc3)[C@]3(O)C[C@H](OC(=O)[C@H](O)[C@@H](NC(=O)c4ccccc4)c4ccccc4)C(C)=C1C3(C)C)[C@]1(OC(C)=O)CO[C@@H]1C[C@@H]2O [Paclitaxel, paclitaxel, reference compound]
microtubule depolymerization [2]: did not induce microtubule depolymerization

Structure (SMILES): CC(=O)O[C@@]12CO[C@@H]1C[C@H](O)[C@@]1(C)C(=O)[C@H](O)C3=C(C)[C@@H](OC(=O)[C@H](O)[C@@H](NC(=O)OC(C)(C)C)c4ccccc4)C[C@@](O)([C@@H](OC(=O)c4ccccc4)[C@H]21)C3(C)C [docetaxel, reference compound]
anti-tumor proliferation effect (tumor weight) [5]: relatively poor pharmacodynamic effect | blood neutrophil count [12]: neutrophil count decrease caused by docetaxel | change of body weight (toxicity) ([11]; mouse, in vivo): weight loss of animals caused by the toxicity of docetaxel | neutrophil count [9]: can significantly reduce the neutrophil count

Structure (SMILES): CC(C)(C)c1[nH]cnc1/C=C1\NC(=O)[C@H](Cc2ccccc2)NC1=O [tert-butyl-phenylahistin, reference compound]
cell membrane blebbing [2]: induced | microtubule depolymerization [2]: induced
